Results on 22 molecules are retold here after patent US12558428B2, “Heterobifunctional compounds and their use in treating disease” (Halda Therapeutics OpCo, Inc., priority 2024, dated 2026).

Structures are written as SMILES. Like-named read-outs stand apart in the source and are kept apart here.

Format in all cases: cell-based
For test [1], the system named is T-Rex 293 cells having increased expression of estrogen receptor alpha protein. The experiment in a line: Cellular growth inhibition assay, T-Rex 293 cells, (+) doxycycline. The conditions noted are these: T-REx-293, 72 h, 72 hours. In outline:
(§1)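 Viability read-out was CellTiter-Glo 2.0 luminescence after 72 h compound exposure, normalized to zero luminescence and fitted by four-parameter regression to give GI50. Cells were an ERα-inducible T-Rex 293 clone cultured with or without 3 ng/mL doxycycline in charcoal-stripped, phenol red-free medium.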

In test [2] the test system is T-Rex 293 cells lacking increased expression of estrogen receptor alpha protein. The experiment in a line: Cellular growth inhibition assay, T-Rex 293 cells, (−) doxycycline. The conditions noted are these: T-REx-293, 72 h, 72 hours. In outline: as §1
Test [3] relates to MCF7 cells (ATCC #HTB-22). The experiment in a line: Cellular growth inhibition assay, MCF7 cells purchased from ATCC. Conditions: Homo sapiens, MCF7, 144 h, Table 8-A; MCF7 cells purchased from ATCC; six days; CellTiter-Glo; read-out: GI50. In outline:
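MCF7 cells in RPMI 1640 with 10% FBS and 0.2 U/ml insulin, seeded at 1,500 cells/well (ATCC) or 225 cells/well (ECACC). Compounds added 24 h later, then 6 days at 37° C. Viability by CellTiter-Glo 2.0 luminescence. GI50 from four-parameter fit.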

[4] abbreviates: T-Rex 293 cells with doxycycline-induced ERα expression, CellTiter-Glo 2.0, read-out: (+) Dox TRex ERa (GI50).
Where [5] appears, read: T-Rex 293 cells without doxycycline, CellTiter-Glo 2.0, read-out: (−) Dox TRex ERa (GI50).
Setting [6] is: Table 7-A, T-Rex 293 cells with doxycycline (increased ERα expression), CellTiter-Glo, read-out: (+) Dox GI50.
Setting [7] is: Table 7-A, T-Rex 293 cells without doxycycline (lacking increased ERα expression), CellTiter-Glo, read-out: (−) Dox GI50.

On to `Cn1cc(-c2cc(C(C)(C)O)ccc2Oc2ccc(N3CCC4(CCN(CCOc5ccc(C(=O)c6c(-c7ccc(O)cc7)sc7cc(O)ccc67)cc5)CC4)C3)cc2)c2cc[nH]c2c1=O` [I-35, 4-(2-(4-(8-(2-(4-(6-hydroxy-2-(4-hydroxyphenyl)benzo[b]thiophene-3-carbonyl)phenoxy)ethyl)-2,8-diazaspiro[4.5]decan-2-yl)phenoxy)-5-(2-hydroxypropan-2-yl)phenyl)-6-methyl-1,6-dihydro-7H-pyrrolo[2,3-c]pyridin-7-one], for which the concentration for 50% growth inhibition (GI50) in test [1] (setting [4]), in test [2] (setting [5]) and in test [3] was under 50 nM in each case.
Consider `Cc1sc2c(c1C)C(c1ccc(OCCOCCCN3CC[C@H](Oc4ccc(C5=C(c6ccc(Cl)cc6Cl)CCCc6cc(O)ccc65)cc4)C3)cc1)=N[C@@H](C)c1nnc(C)n1-2` [I-36, 8-(2,4-dichlorophenyl)-9-(4-(((S)-1-(3-(2-(4-((S)-2,3,6,9-tetramethyl-6H-thieno[3,2-f][1,2,4]triazolo[4,3-a][1,4]diazepin-4-yl)phenoxy)ethoxy)propyl)pyrrolidin-3-yl)oxy)phenyl)-6,7-dihydro-5H-benzo[7]annulen-3-ol], for which the concentration for 50% growth inhibition (GI50) in test [1] (setting [4]), in test [2] (setting [5]) and in test [3] was 500 to 2500 nM in each case.
As for `Cc1sc2c(c1C)C(c1ccc(CC3CC4(CCCN(c5ccc([C@@H]6c7ccc(O)cc7CC[C@@H]6c6ccccc6)cc5)C4)C3)cc1)=N[C@@H](C)c1nnc(C)n1-2` (stereo partly drawn) [I-44], the GI50 in test [1] (setting [6]) is 50 to 500 nM; in test [2] (setting [7]) it was 500 to 2500 nM; in test [3], 500 to 2500 nM.
Take `Cc1sc2c(c1C)C(c1ccc(C#CC3CC4(CCN(c5ccc([C@@H]6c7ccc(O)cc7CC[C@@H]6c6ccccc6)cc5)CC4)C3)cc1)=N[C@@H](Cc1ncco1)c1nnc(C)n1-2` [I-46]: the results for the 50% growth inhibitory concentration (GI50) in test [1] (setting [6]), in test [2] (setting [7]) and in test [3] were under 50 nM, over 2500 nM and 50 to 500 nM, respectively.
The corresponding values for `Cc1sc2c(c1C)C(c1ccc(C#CC3CC4(CCN(c5ccc([C@@H]6c7ccc(O)cc7CC[C@@H]6c6ccccc6)cc5)CC4)C3)cc1)=N[C@@H](C)c1nnc(C)n1-2` [I-47] are 50 to 500 nM, over 2500 nM and 500 to 2500 nM.
The corresponding values for `Cc1sc2c(c1C)C(c1ccc(OCCOCCCN3CC(Nc4ccc([C@@H]5c6ccc7n[nH]cc7c6C[C@@H](C)N5CC(F)(F)F)nc4)C3)cc1)=N[C@@H](C)c1nnc(C)n1-2` [I-57] are under 50 nM, 500 to 2500 nM and under 50 nM.
The corresponding values for `CC1=C(c2c(F)cc(F)cc2F)[C@H](c2ccc(OCCN3CC(COCCOc4ccc(C5=N[C@@H](C)c6nnc(C)n6-c6sc(C)c(C)c65)cc4)C3)cc2)Oc2ccc(O)cc21` [I-59] are 50 to 500 nM, 500 to 2500 nM and 50 to 500 nM.
Turning to `CC1=C(c2ccc(O)cc2)[C@H](c2ccc(OCCN3CC[C@@H](OCCOCCOc4ccc(C5=N[C@@H](C)c6nnc(C)n6-c6sc(C)c(C)c65)cc4)C3)cc2)Oc2cc(O)ccc21` [I-60], the GI50 is 50 to 500 nM in test [1] (setting [6]), 500 to 2500 nM in test [2] (setting [7]) and 50 to 500 nM in test [3].
`Cc1sc2c(c1C)C(c1ccc(CC3CC4(CCN(c5ccc([C@@H]6c7ccc(O)cc7CC[C@@H]6c6ccccc6)cc5)CC4)C3)cc1)=N[C@@H](Cc1ncco1)c1nnc(C)n1-2` [I-62, (5R,6S)-6-phenyl-5-(4-(2-(4-((S)-2,3,9-trimethyl-6-(oxazol-2-ylmethyl)-6H-thieno[3,2-f][1,2,4]triazolo[4,3-a][1,4]diazepin-4-yl)benzyl)-7-azaspiro[3.5]nonan-7-yl)phenyl)-5,6,7,8-tetrahydronaphthalen-2-ol]: the concentration for 50% growth inhibition (GI50) in test [1] (setting [6]) was 50 to 500 nM; in test [2] (setting [7]) it was 500 to 2500 nM; in test [3] it was over 2500 nM.
In the same order, the values of `Cc1sc2c(c1C)C(c1ccc(N3CCN(CC4CCN(c5ccc([C@@H]6c7ccc(O)cc7CC[C@@H]6c6ccccc6)cc5)CC4)CC3)cc1)=N[C@H](Cc1ncco1)c1nnc(C)n1-2` [III-1, (5R,6S)-6-phenyl-5-(4-(4-((4-(4-((R)-2,3,9-trimethyl-6-(oxazol-2-ylmethyl)-6H-thieno[3,2-f][1,2,4]triazolo[4,3-a][1,4]diazepin-4-yl)phenyl)piperazin-1-yl)methyl)piperidin-1-yl)phenyl)-5,6,7,8-tetrahydronaphthalen-2-ol] are over 2500 nM, over 2500 nM and 500 to 2500 nM.
In the same order, the values of `Cc1sc2c(c1C)C(c1ccc(N3CCN(CC4CCN(c5ccc([C@H]6c7ccc(O)cc7CC[C@H]6c6ccccc6)cc5)CC4)CC3)cc1)=N[C@H](Cc1ncco1)c1nnc(C)n1-2` [III-2, (5S,6R)-6-phenyl-5-(4-(4-((4-(4-((R)-2,3,9-trimethyl-6-(oxazol-2-ylmethyl)-6H-thieno[3,2-f][1,2,4]triazolo[4,3-a][1,4]diazepin-4-yl)phenyl)piperazin-1-yl)methyl)piperidin-1-yl)phenyl)-5,6,7,8-tetrahydronaphthalen-2-ol] are over 2500 nM, over 2500 nM and 500 to 2500 nM.
The corresponding values for `Cc1sc2c(c1C)C(c1ccc(N3CCN(CC4CCN(c5ccc([C@H]6c7ccc(O)cc7CC[C@H]6c6ccccc6)cc5)CC4)CC3)cc1)=N[C@@H](Cc1ncco1)c1nnc(C)n1-2` [III-3, (5S,6R)-6-phenyl-5-(4-(4-((4-(4-((S)-2,3,9-trimethyl-6-(oxazol-2-ylmethyl)-6H-thieno[3,2-f][1,2,4]triazolo[4,3-a][1,4]diazepin-4-yl)phenyl)piperazin-1-yl)methyl)piperidin-1-yl)phenyl)-5,6,7,8-tetrahydronaphthalen-2-ol] are 50 to 500 nM, 500 to 2500 nM and 50 to 500 nM.
Turning to `Cc1sc2c(c1C)C(c1ccc(CC3CC4(CCN(c5ccc([C@@H]6c7ccc(O)cc7CC[C@@H]6c6ccccc6)cc5)CC4)C3)cc1)=N[C@H](Cc1ncco1)c1nnc(C)n1-2` [III-4, (5R,6S)-6-phenyl-5-(4-(2-(4-((R)-2,3,9-trimethyl-6-(oxazol-2-ylmethyl)-6H-thieno[3,2-f][1,2,4]triazolo[4,3-a][1,4]diazepin-4-yl)benzyl)-7-azaspiro[3.5]nonan-7-yl)phenyl)-5,6,7,8-tetrahydronaphthalen-2-ol], the GI50 is 500 to 2500 nM in test [1] (setting [6]), over 2500 nM in test [2] (setting [7]) and over 2500 nM in test [3].
As to `Cc1sc2c(c1C)C(c1ccc(N3CCC(CN4CCN(c5ccc([C@@H]6c7ccc(O)cc7CC[C@@H]6c6ccccc6)cc5)CC4)CC3)cc1)=N[C@@H](C)c1nnc(C)n1-2` [III-5], the values for the 50% growth inhibitory concentration (GI50) in test [1] (setting [6]), in test [2] (setting [7]) and in test [3] were under 50 nM, 500 to 2500 nM and under 50 nM, respectively.
As for `Cc1sc2c(c1C)C(c1ccc(N3CCC(CN4CCN(c5ccc([C@H]6c7ccc(O)cc7CC[C@H]6c6ccccc6)cc5)CC4)CC3)cc1)=N[C@@H](C)c1nnc(C)n1-2` [III-6], the results for the 50% growth inhibitory concentration (GI50) in test [1] (setting [6]), in test [2] (setting [7]) and in test [3] were 50 to 500 nM, 500 to 2500 nM and 50 to 500 nM, respectively.
As to `Cc1sc2c(c1C)C(c1ccc(N3CCC(N4CC(Oc5ccc([C@@H]6c7ccc(O)cc7CC[C@@H]6c6ccccc6)cc5)C4)CC3)cc1)=N[C@@H](C)c1nnc(C)n1-2` [III-7], the figures for the GI50 in test [1] (setting [6]), in test [2] (setting [7]) and in test [3] were 50 to 500 nM, 500 to 2500 nM and 50 to 500 nM, respectively.
As for `Cc1sc2c(c1C)C(c1ccc(N3CCC(N4CC(Oc5ccc([C@H]6c7ccc(O)cc7CC[C@H]6c6ccccc6)cc5)C4)CC3)cc1)=N[C@@H](C)c1nnc(C)n1-2` [III-8], the 50% growth inhibitory concentration (GI50) in test [1] (setting [6]) lay within 500 to 2500 nM; in test [2] (setting [7]), 500 to 2500 nM; in test [3], 50 to 500 nM.
With `Cc1sc2c(c1C)C(c1ccc(N3CCC(CN4CC(COc5ccc([C@H]6c7ccc(O)cc7CC[C@H]6c6ccccc6)cc5)C4)CC3)cc1)=N[C@@H](C)c1nnc(C)n1-2` [III-9], the concentration for 50% growth inhibition (GI50) in test [1] (setting [6]) was under 50 nM; in test [2] (setting [7]) it was 50 to 500 nM; in test [3], 50 to 500 nM.
For the molecule `Cc1sc2c(c1C)C(c1ccc(N3CCC(CN4CC(COc5ccc([C@@H]6c7ccc(O)cc7CC[C@@H]6c6ccccc6)cc5)C4)CC3)cc1)=N[C@@H](C)c1nnc(C)n1-2` [III-10], the GI50 is under 50 nM in test [1] (setting [6]), 50 to 500 nM in test [2] (setting [7]) and 50 to 500 nM in test [3].
On to `Cc1sc2c(c1C)C(c1ccc(N3CC4(CCN(CC5CCN(c6ccc([C@H]7c8ccc(O)cc8CC[C@H]7c7ccccc7)cc6)CC5)CC4)C3)cc1)=N[C@@H](C)c1nnc(C)n1-2` [III-11], for which the 50% growth inhibitory concentration (GI50) was under 50 nM in test [1] (setting [6]), 50 to 500 nM in test [2] (setting [7]) and 50 to 500 nM in test [3].
As to `Cc1sc2c(c1C)C(c1ccc(N3CC4(CCN(CC5CCN(c6ccc([C@@H]7c8ccc(O)cc8CC[C@@H]7c7ccccc7)cc6)CC5)CC4)C3)cc1)=N[C@@H](C)c1nnc(C)n1-2` [III-12], the concentration for 50% growth inhibition (GI50) in test [1] (setting [6]) was under 50 nM; in test [2] (setting [7]) it was 500 to 2500 nM; in test [3] it was 50 to 500 nM.
The corresponding values for `Cc1sc2c(c1C)C(c1ccc(CC3CC4(CCCN(c5ccc([C@H]6c7ccc(O)cc7CC[C@H]6c6ccccc6)cc5)C4)C3)cc1)=N[C@@H](C)c1nnc(C)n1-2` (stereo partly drawn) [III-13] are 500 to 2500 nM, over 2500 nM and 500 to 2500 nM.
